Measured values from patent US7892574B2, “Topical administration of oxazolidinones for transdermal delivery” (Pharmacia & Upjohn Company, LLC, priority 1998, dated 2011).

Experiments:
Type in all cases: in vivo
[1] = test system: acne; assay: Human who has acne treated with an Oxazolidinone ointment; settings: person, ointment containing 30 mg/ml, topical, twice daily
Method: A Human Who has Acne is Treated with an Oxazolidinone Ointment

[2] = test system: wound infection; assay: Human with wound infection treated with Oxazolidinone gel; settings: person, punctured finger, gel containing 1%, twice daily for 10 days
Method: Human with Wound Infection is Treated with Oxazolidinone Gel
A 65 kg person who has a severely swollen and painful finger with a history of having punctured the finger on a rose thorn two days previously is treated by administering a gel containing 1% N-((5S)-3-(3-fluoro-4-(4-(2-fluoroethyl)-3-oxopiperazin-1-yl)phenyl)-2-oxooxazolidin-5-ylmethyl)acetamide twice daily for 10 days. The site of inflammation is kept lightly covered with a sterile bandage following antibiotic therapy.

[3] = test system: otitis media; assay: Human who has an ear infection treated with Oxazolidinone solution; settings: child, ten drops of solution containing 10 mg/ml into the ear twice daily for ten days; before 10 days
Method: A Human Who has an Ear Infection is Treated with Oxazolidinone Solution
Ten drops of a solution containing 10 mg/ml of (S)-N-[[3-[3-fluoro-4-(4-morpholinyl)phenyl]-2-oxo-5-oxazolidinyl]methyl]acetamide is dropped into the ear twice daily for ten days with an eye dropper and is immediately followed by closing the outer ear canal with cotton.

CC(=O)NC[C@H]1CN(c2ccc(N3CCN(C(=O)CO)CC3)c(F)c2)C(=O)O1 [Example 1, (S)-N-[[3-[3-Fluoro-4-[4-(hydroxyacetyl)-1-piperazinyl]-phenyl]-2-oxo-5-oxazolidinyl]methyl]acetamide]
reddened and swollen pustules after administration [1]: greatly reduced

CC(=O)NC[C@H]1CN(c2ccc(N3CCN(CCF)C(=O)C3)c(F)c2)C(=O)O1 [Example 4, N-((5S)-3-(3-Fluoro-4-(4-(2-fluoroethyl)-3-oxopiperazin-1-yl)phenyl)-2-oxooxazolidin-5-ylmethyl)acetamide]
wound healing [2]: The wound heals

CC(=O)NC[C@H]1CN(c2ccc(N3CCOCC3)c(F)c2)C(=O)O1 [Example 2, (S)-N-[[3-[3-Fluoro-4-(4-morpholinyl)phenyl]-2-oxo-5-oxazolidinyl]methyl]acetamide]
fever [3]: the fever is down
pain [3]: the pain is gone
